Data: PMC8322070, “A novel orally active HDAC6 inhibitor T-518 shows a therapeutic potential for Alzheimer’s disease and tauopathy in mice” (Scientific Reports, 2021)

Key:
[1] = target: T1, human HDAC6 (Homo sapiens, UniProt Q9UBN7); experiment: HDAC enzyme assay (HDAC-Glo I/II), HDAC6; type: biochemical
T1 construct: purchased SignalChem Pharmaceutical Inc
T1 sequence (Q9UBN7 1-1215): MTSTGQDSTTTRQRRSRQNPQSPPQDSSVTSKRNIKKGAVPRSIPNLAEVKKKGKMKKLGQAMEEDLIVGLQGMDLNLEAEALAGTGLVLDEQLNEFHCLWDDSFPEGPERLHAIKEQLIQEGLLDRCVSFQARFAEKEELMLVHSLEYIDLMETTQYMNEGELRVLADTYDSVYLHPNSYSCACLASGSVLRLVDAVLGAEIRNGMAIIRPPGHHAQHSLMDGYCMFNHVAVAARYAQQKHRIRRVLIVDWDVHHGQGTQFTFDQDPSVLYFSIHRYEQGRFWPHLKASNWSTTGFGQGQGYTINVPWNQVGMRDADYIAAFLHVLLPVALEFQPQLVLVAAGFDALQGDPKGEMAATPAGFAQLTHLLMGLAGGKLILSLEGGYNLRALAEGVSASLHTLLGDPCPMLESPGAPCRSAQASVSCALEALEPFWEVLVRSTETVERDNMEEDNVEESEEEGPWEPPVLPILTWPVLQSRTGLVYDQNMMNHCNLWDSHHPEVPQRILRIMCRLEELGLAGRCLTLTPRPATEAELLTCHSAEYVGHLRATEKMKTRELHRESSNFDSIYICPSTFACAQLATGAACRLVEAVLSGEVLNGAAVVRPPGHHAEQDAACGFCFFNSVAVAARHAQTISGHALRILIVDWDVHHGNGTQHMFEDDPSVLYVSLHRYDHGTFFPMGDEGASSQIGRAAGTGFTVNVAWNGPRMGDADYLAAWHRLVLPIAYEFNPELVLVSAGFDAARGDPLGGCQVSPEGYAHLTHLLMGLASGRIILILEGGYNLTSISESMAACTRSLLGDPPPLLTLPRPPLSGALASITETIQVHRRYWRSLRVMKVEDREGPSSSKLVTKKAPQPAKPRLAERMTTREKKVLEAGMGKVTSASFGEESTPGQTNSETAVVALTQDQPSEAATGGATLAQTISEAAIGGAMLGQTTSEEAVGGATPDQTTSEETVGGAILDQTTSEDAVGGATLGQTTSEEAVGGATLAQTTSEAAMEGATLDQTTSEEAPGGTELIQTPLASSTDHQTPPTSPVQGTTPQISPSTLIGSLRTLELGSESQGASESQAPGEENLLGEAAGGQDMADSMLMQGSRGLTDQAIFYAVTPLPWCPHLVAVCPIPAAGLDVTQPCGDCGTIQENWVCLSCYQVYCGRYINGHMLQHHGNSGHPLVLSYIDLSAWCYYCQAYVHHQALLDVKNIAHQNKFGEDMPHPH
Procedure: (§1) Recombinant HDAC6, HDAC7, HDAC1 were obtained from SignalChem Pharmaceutical Inc. (Richmond, BC, Canada), and recombinant human HDAC4 was prepared at Takeda pharmaceutical company. One μL of T-518 diluted with DMSO was added to 75 μL of assay buffer (24 mM Tris–HCl (pH 7.5), 135 mM NaCl, 0.35 mM KCl, 1 mM MgCl2, 0.01% Tween 20, 0.6 mM GSH) in 384 well plates. Two μL of diluted compounds were added to 384 well plates and 2 μL of recombinant HDAC enzymes was added and then centrifuged at 1000 rpm for 10 s. The final concentrations of each HDAC enzyme were as follows, human HDAC1, 170 pM; human HDAC6, […]; human HDAC4, 68 pM; human HDAC7, 13 pM. After incubation for 60 min at room temperature, 4 μL of HDAC-Glo reagent [HDAC-Glo I/II (Promega) for HDAC6 and HDAC1, HDAC-Glo class IIa (Promega) for HDAC4 and HDAC7] was added to start the reaction. After incubation for 20 min at room temperature, the luminescence was measured by Envision plate reader (PerkinElmer, Waltham, MA, USA). For experiments under the condition of 0 min preincubation, 4 μL of HDAC-Glo reagent was added at first to the 384 well plates including diluted compounds. […] After centrifugation at 1000 rpm for 10 s. and then incubation for 20 min at room temperature, the luminescence was measured by Envision. […] The inhibitory activity of T-518 was expressed as the value of IC50. […]

[2] = target: T2, human HDAC1 (Homo sapiens, UniProt Q13547); experiment: HDAC enzyme assay (HDAC-Glo I/II), HDAC1; type: biochemical; conditions: concentrations up to 10 μM
T2 construct: purchased SignalChem Pharmaceutical Inc
T2 sequence (Q13547 whole entry): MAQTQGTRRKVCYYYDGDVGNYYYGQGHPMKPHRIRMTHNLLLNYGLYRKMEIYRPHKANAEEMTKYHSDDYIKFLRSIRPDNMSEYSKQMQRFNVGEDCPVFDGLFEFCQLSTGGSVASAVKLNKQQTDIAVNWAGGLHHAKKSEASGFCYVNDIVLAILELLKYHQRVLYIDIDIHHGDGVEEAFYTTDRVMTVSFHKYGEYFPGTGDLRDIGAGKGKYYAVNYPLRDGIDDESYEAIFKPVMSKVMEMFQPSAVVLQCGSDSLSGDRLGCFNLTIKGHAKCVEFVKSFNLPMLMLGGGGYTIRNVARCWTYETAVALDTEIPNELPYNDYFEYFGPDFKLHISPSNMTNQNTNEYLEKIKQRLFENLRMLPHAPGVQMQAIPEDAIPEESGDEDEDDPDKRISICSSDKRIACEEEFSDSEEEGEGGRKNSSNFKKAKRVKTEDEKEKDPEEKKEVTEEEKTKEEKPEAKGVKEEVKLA
Procedure: as §1

[3] = target: T3, human HDAC4 (Homo sapiens, UniProt P56524); experiment: HDAC enzyme assay (HDAC-Glo class IIa), HDAC4; type: biochemical; conditions: concentrations up to 10 μM
T3 construct: made in house
T3 sequence (P56524 whole entry): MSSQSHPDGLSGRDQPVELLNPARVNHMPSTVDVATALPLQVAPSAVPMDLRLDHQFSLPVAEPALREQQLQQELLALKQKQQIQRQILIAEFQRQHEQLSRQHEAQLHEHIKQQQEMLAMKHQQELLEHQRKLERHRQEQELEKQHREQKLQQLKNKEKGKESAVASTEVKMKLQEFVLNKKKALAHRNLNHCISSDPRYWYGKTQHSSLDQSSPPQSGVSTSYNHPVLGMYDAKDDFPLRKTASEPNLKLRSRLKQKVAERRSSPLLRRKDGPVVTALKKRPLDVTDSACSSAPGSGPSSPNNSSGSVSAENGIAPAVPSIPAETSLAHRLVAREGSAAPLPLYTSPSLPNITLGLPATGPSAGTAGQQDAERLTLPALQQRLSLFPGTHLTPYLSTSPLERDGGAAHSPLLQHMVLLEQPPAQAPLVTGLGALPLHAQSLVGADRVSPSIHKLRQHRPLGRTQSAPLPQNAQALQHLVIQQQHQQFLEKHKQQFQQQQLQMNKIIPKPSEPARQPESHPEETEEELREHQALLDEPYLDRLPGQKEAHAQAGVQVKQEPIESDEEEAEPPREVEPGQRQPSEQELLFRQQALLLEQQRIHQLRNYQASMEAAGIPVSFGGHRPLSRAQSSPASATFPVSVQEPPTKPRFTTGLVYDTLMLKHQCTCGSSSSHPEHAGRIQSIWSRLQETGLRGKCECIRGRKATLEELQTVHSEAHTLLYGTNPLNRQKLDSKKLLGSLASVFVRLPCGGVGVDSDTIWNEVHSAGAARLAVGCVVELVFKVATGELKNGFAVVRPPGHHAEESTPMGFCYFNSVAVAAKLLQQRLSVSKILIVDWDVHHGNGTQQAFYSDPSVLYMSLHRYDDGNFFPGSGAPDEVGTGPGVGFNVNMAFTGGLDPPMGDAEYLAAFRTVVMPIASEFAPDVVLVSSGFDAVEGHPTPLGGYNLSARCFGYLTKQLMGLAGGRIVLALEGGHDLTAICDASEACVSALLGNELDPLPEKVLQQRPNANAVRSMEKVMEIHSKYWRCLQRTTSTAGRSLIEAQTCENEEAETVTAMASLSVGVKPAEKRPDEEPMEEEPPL
Procedure: as §1

[4] = test system: HDAC1‒5, 7‒9, and 11; experiment: HDAC selectivity panel (Reaction Biology Corporation); type: biochemical; conditions: up to 10 μM; heat map Fig. 2A
[5] = test system: acetylated tubulin in hippocampus; experiment: In vivo pharmacodynamics: acetylated tubulin in hippocampus (ELISA); conditions: 0.3–300 mg/kg orally, 4 h after administration, C57BL/6J mice
Procedure: T-518, ACY-738, Ricolinostat, and Tubastatin A were synthesized in Takeda. For in vitro cellular experiments, the compounds were solubilized with DMSO and diluted in the culture medium at the indicated concentrations. For in vivo experiments, the compound was reconstituted in 0.5% methylcellulose and administered orally at the indicated doses. After administration, mouse hippocampus was isolated and homogenized in RIPA extraction buffer (50 mM Tris–HCl, 150 mM NaCl, 1% NP-40, 0.5% sodium deoxycholate, and 0.1% SDS, pH 8.0) supplemented with protease and phosphatase inhibitor cocktail (Thermo Fischer, Waltham, MA, USA). The homogenate was centrifuged at 10,000g for 15 min and the supernatant was taken as the RIPA-soluble fraction.
Acetylated α-tubulin and total tubulin levels were measured by sandwich ELISA. Ninety six-well plates (Microlite2+, Thermo) were coated with α-tubulin capture antibody (1:100) by overnight incubation at 4 °C, washed 4 times with PBS'T, treated with blocking buffer (1% bovine serum albumin in PBS'T) at 37 °C for 2 h, and washed another 4 times with PBS’T. Cell or tissues lysate was added to the wells and plates were incubated at 37 °C for 2 h. […]

[6] = test system: experimental mice; experiment: Tolerability of chronic dosing; type: in vivo

For `O=C1c2cc(-c3nnc(C(F)F)o3)cnc2CN1[C@@H]1CCCC[C@H]1NC(=O)C(F)(F)C(F)(F)F` [T-518, N-[(1R,2R)-2-{3-[5-(difluoromethyl)-1,3,4-oxadiazol-2-yl]-5-oxo-5H,6H,7H-pyrrolo[3,4-b]pyridin-6-yl}cyclohexyl]-2,2,3,3,3-pentafluoropropanamide], the IC50 ([1]; after 60 min of pre-incubation) was 4.6 nM, the IC50 ([1]; without pre-incubation) was 36 nM and the “inhibition of human HDAC1 enzyme activity” value [2] was “did not obviously inhibit”. The “inhibition of human HDAC4 enzyme activity” value [3] was “did not obviously inhibit”, the “inhibition of HDAC1‒5, 7‒9, and 11 in HDAC panel” value [4] was “does not inhibit” and the “tubulin acetylation in hippocampi” value [5] was “dose-dependently increased tubulin acetylation”. The “tolerability of chronic dosing” value [6] was “well tolerated”.
